The source of these data is ChEMBL document CHEMBL4507276 (2021).

Holding throughout (conditions): Compound concentration 1000.0 nM
Experiment [1] has as its target Interferon-induced, double-stranded RNA-activated protein kinase (Homo sapiens) (UniProt P19525).
For experiment [2], the target named is Tyrosine-protein kinase Lck (Homo sapiens) (UniProt P06239).
Experiment [3] deals with Receptor tyrosine-protein kinase erbB-4 (Homo sapiens) (UniProt Q15303).
In experiment [4] the target is Ephrin type-A receptor 5 (Homo sapiens) (UniProt P54756).
Experiment [5] has as its target Mitogen-activated protein kinase 15 (Homo sapiens) (UniProt Q8TD08).
Experiment [6] addresses Myosin-IIIb (Homo sapiens) (UniProt Q8WXR4).
Experiment [7] relates to Phosphatidylinositol 4,5-bisphosphate 3-kinase catalytic subunit alpha isoform (Homo sapiens), P42336 [E545A].
Experiment [8] addresses Phosphorylase b kinase gamma catalytic chain, skeletal muscle/heart isoform (Homo sapiens) (UniProt Q16816).
The target in experiment [9] is T1, cAMP-dependent protein kinase catalytic subunit PRKX (Homo sapiens) (UniProt P51817).
T1 sequence (whole entry): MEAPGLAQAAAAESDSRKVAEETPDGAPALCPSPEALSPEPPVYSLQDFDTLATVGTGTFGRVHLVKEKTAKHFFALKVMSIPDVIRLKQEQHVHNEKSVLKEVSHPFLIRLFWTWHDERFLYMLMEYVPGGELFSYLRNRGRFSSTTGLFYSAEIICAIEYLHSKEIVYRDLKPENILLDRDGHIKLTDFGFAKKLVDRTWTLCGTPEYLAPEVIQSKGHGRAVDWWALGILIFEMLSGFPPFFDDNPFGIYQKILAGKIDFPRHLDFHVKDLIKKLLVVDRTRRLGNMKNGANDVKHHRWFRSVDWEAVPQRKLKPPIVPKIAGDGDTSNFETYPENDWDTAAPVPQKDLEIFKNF

Experiment [10] deals with Cyclin-dependent kinase 7 (Homo sapiens) (UniProt P50613).
In experiment [11] the target is Receptor-type tyrosine-protein kinase FLT3 (Homo sapiens) (UniProt P36888).
For experiment [12], the target named is Homeodomain-interacting protein kinase 2 (Homo sapiens) (UniProt Q9H2X6).
For experiment [13], the system named is Mast/stem cell growth factor receptor Kit (Homo sapiens), P10721 [D816H].
Experiment [14] concerns the target T2, Tyrosine-protein kinase TXK (Homo sapiens) (UniProt P42681).
T2 sequence (whole entry): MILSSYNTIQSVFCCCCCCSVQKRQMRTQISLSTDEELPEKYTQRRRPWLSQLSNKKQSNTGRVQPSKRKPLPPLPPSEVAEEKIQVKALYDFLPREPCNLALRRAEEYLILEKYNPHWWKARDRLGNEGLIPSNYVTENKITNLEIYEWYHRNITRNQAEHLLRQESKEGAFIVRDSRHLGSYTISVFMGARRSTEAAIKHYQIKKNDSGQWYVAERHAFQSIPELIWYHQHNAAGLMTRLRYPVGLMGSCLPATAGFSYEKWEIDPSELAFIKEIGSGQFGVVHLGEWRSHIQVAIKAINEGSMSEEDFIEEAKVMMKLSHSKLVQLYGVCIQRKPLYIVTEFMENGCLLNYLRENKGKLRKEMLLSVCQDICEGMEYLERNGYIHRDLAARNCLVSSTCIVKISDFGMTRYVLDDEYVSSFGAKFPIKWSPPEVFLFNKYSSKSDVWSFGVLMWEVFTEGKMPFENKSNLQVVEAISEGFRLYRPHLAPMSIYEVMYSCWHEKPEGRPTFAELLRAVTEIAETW

Experiment [15] concerns the target Myosin light chain kinase, smooth muscle (Homo sapiens) (UniProt Q15746).
In experiment [16] the target is T3, Serine/threonine-protein kinase Nek9 (Homo sapiens) (UniProt Q8TD19).
T3 sequence (whole entry): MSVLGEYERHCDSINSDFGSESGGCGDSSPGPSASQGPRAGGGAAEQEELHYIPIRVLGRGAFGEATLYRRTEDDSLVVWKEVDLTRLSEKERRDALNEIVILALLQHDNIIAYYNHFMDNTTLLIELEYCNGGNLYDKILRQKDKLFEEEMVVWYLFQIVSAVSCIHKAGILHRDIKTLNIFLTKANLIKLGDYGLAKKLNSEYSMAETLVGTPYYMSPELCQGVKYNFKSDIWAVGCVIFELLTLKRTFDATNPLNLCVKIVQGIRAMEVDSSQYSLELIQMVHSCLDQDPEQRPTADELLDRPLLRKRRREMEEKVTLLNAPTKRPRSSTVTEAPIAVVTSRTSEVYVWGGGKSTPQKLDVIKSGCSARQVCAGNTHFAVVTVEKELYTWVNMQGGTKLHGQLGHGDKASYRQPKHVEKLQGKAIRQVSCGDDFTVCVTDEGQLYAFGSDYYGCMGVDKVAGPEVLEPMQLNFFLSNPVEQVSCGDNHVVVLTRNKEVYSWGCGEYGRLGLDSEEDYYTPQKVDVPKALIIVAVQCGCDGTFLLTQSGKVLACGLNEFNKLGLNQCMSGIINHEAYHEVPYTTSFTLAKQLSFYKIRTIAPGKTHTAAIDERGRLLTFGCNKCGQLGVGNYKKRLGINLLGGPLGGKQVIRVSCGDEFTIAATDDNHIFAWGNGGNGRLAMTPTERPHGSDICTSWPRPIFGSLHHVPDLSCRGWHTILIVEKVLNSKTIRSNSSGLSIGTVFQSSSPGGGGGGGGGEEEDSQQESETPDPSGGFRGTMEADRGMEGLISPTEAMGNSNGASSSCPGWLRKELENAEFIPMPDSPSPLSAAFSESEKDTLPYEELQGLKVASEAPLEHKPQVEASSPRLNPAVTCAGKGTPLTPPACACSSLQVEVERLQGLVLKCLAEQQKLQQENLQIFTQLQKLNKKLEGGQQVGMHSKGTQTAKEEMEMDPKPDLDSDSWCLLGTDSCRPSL

Chain of Cyclin-dependent kinase 7 (Homo sapiens) (P50613 whole entry): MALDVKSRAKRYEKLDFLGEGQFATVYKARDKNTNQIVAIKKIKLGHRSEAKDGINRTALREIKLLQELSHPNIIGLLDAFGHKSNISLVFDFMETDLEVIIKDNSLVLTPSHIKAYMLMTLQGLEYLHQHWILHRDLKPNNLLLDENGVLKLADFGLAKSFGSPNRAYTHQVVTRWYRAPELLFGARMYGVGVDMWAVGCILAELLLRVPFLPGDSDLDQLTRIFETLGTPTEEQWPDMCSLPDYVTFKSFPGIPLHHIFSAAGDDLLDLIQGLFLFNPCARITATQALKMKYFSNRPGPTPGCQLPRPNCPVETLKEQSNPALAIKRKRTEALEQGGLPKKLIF
Chain of Phosphatidylinositol 4,5-bisphosphate 3-kinase catalytic subunit alpha isoform (Homo sapiens), P42336 [E545A] (P42336 whole entry E545A, canonical isoform): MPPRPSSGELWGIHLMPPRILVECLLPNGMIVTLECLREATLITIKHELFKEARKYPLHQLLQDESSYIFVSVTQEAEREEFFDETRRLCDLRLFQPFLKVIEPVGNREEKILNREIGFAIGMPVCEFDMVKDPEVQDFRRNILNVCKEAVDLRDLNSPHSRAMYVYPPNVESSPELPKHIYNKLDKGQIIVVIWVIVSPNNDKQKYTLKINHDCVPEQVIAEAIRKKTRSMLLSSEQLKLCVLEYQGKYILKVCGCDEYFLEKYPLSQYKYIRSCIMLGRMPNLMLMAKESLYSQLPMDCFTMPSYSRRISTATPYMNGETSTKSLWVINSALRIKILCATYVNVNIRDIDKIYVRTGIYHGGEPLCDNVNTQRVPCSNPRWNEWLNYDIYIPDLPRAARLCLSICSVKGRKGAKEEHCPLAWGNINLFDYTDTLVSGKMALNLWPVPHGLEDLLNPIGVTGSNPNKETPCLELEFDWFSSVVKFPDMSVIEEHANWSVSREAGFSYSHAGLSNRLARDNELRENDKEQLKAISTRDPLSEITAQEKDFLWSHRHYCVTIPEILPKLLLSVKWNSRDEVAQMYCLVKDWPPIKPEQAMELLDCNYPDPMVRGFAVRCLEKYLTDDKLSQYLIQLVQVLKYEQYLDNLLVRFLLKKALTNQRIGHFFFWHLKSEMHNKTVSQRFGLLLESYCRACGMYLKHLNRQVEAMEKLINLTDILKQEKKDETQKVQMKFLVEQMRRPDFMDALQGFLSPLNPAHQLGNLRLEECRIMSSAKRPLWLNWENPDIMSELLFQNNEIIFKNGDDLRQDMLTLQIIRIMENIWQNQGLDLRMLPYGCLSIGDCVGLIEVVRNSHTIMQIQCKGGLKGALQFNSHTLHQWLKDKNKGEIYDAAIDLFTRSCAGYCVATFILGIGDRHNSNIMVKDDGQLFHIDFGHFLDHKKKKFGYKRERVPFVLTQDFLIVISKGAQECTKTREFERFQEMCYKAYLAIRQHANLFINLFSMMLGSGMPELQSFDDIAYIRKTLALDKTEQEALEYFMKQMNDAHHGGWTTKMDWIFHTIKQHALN
Chain of Homeodomain-interacting protein kinase 2 (Homo sapiens) (Q9H2X6 whole entry, looked up): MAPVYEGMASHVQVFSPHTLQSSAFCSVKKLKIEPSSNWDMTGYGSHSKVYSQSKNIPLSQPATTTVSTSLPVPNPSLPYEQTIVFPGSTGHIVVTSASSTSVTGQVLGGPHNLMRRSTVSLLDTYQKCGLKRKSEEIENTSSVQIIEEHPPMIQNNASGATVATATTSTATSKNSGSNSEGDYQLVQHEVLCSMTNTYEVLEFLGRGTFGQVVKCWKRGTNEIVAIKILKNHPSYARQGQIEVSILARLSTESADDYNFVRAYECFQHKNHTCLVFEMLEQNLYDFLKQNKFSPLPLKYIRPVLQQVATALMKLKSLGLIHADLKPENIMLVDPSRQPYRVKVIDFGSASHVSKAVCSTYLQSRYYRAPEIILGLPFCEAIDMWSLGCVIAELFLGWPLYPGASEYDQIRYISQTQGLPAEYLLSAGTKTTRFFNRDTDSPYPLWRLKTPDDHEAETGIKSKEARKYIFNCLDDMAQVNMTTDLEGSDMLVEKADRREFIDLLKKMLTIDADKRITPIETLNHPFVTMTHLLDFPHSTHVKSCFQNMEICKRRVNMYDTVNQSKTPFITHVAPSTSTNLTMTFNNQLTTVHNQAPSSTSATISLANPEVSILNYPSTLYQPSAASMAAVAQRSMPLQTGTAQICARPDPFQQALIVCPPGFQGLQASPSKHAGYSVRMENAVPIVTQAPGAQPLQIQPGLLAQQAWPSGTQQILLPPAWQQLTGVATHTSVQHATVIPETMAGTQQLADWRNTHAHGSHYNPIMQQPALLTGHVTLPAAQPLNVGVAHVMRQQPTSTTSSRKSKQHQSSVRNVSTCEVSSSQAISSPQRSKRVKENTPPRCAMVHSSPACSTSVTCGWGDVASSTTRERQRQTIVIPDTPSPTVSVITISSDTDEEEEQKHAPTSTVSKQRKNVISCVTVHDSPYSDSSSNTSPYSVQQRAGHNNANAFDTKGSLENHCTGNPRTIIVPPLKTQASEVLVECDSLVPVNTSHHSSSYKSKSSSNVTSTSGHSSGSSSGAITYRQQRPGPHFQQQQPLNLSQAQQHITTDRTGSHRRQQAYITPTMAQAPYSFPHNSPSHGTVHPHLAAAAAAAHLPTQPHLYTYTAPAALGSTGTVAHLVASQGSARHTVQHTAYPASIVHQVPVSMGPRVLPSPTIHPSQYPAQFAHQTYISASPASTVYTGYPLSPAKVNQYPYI
Chain of Receptor tyrosine-protein kinase erbB-4 (Homo sapiens) (Q15303 whole entry): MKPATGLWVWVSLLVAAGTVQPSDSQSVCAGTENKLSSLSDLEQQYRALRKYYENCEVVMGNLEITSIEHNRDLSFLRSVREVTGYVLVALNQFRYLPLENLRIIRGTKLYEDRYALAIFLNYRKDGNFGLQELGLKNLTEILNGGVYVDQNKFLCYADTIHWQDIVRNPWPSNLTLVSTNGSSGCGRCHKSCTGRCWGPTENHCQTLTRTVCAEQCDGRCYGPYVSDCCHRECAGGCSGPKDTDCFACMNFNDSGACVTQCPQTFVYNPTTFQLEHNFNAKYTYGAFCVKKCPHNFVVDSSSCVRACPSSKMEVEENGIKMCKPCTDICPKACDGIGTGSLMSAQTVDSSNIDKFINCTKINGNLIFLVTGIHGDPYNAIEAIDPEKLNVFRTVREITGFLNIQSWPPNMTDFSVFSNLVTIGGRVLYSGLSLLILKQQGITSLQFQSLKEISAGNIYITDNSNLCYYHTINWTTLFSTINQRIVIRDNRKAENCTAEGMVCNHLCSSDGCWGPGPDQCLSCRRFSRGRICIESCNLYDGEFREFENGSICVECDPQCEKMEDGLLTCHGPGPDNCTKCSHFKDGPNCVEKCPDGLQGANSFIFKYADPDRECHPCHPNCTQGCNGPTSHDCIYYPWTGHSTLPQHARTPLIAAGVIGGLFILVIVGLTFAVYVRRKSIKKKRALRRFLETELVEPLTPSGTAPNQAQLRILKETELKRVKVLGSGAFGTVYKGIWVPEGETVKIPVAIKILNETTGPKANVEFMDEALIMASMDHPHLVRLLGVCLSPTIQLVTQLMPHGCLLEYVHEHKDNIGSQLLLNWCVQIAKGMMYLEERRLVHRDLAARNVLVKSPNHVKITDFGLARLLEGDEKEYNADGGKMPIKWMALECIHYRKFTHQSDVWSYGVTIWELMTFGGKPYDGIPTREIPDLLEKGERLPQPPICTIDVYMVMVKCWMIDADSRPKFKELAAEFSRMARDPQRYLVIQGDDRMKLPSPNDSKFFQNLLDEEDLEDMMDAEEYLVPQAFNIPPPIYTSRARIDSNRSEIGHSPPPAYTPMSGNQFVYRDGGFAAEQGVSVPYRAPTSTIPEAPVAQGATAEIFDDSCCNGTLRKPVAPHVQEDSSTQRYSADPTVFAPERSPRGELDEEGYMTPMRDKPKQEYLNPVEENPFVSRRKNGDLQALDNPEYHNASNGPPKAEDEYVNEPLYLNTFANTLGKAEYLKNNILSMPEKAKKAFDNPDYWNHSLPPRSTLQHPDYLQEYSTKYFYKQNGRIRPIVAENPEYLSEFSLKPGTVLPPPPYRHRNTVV
Chain of Ephrin type-A receptor 5 (Homo sapiens) (P54756 whole entry): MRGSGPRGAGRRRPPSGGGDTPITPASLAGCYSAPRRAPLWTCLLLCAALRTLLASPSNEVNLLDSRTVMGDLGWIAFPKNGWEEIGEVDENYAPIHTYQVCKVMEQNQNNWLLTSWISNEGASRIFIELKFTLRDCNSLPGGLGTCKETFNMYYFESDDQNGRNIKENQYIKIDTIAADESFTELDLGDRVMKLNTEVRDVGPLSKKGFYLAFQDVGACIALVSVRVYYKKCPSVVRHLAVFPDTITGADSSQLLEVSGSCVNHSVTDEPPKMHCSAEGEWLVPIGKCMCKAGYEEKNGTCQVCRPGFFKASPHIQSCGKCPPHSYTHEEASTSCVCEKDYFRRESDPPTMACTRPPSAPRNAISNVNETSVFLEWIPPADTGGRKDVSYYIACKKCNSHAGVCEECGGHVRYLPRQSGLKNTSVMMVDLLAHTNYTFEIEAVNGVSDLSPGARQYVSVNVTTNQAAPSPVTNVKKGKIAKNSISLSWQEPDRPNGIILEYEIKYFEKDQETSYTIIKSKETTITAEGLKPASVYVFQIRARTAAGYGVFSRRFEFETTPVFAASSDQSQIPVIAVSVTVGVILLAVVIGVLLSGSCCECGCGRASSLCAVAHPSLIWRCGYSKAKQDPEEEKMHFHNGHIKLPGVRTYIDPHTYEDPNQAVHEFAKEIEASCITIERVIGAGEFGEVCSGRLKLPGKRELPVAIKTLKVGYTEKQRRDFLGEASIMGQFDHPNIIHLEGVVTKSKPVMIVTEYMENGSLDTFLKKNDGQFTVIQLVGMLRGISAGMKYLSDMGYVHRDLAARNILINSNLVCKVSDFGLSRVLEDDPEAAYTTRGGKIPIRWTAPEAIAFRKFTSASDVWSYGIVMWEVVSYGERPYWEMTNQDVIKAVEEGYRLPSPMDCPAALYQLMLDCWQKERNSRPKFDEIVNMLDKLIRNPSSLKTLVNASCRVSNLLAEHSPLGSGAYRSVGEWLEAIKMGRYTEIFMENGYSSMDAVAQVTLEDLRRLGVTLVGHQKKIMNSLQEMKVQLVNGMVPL

With `CN(C)C(=O)Cn1cc(-c2nc(C3(c4ccc(-c5cnc(N)nc5)cc4)CC3)no2)cn1` [BI 0153], the residual activity is 100% in experiment [1]; 83% in [2]; 100% in [3]; 41% in [4]; 96% in experiment [5]; 100% in [6]. The residual activity in experiment [7] was 99%; in experiment [8], 97%; in experiment [9], 100%; in experiment [10], 72%; in experiment [11], 90%; in experiment [12] it was 94%. Moreover, the residual activity in experiment [13] is 85%; in [14], 98%; in experiment [15], 72%; in experiment [16] it was 100%.

As to `CN(C)C(=O)Cn1cc(-c2nc([C@@](C)(c3ccc(-c4cnc(N)nc4)cc3)C3CC3)no2)cn1` [BI 665915], the residual activity in experiment [1] is 100%; in [2], 86%; in [3], 100%; in experiment [4], 100%; in [5] it was 91%; in experiment [6] it was 70%. For the same molecule, the residual activity in experiment [7] was 75%; in experiment [8] it was 77%; in experiment [9], 100%; in experiment [10], 59%; in experiment [11] it was 97%; in [12], 87%. The residual activity is 100% in experiment [13], 96% in experiment [14], 84% in experiment [15] and 95% in [16].
